Measured values: patent US20040192720A1, “Novel heteroaryl alkylamide derivatives useful as bradykinin receptor modulators” (priority 2003, published 2004)

Key:
[1] = molecular target: T1, human B2 bradykinin receptors (Homo sapiens, UniProt P30411); experiment: Bradykinin B2 (BK2) Receptor Binding Assay; details: CHO-K1 membranes transfected with human B2 receptor, ~0.25 nM [3H]NPC17731, 60 min 25° C.
T1 construct: purchased Receptor Biology, Inc. (Baltimore, Md.); host or cells: CHO-K1 cells transfected with human B2 receptor (membranes)
T1 sequence (P30411 1-391): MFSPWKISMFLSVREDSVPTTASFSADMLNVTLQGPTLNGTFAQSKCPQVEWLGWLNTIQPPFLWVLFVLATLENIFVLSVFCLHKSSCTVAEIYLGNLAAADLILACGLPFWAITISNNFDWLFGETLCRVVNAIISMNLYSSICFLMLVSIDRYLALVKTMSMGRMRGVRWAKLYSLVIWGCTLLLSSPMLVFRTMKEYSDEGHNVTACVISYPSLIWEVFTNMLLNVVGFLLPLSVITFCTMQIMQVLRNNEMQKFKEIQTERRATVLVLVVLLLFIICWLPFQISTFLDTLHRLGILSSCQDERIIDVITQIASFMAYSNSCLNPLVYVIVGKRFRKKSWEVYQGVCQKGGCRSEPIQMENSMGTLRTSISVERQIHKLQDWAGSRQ
Method: Bradykinin B2 (BK2) Receptor Binding Assay
Cell membranes of CHO-K1 cells transfected with human B2 bradykinin receptors (CH)-hB2) were purchased from Receptor Biology, Inc. (Baltimore, Md.). 5.54 mg/mL of membrane protein suspended in 10 mM TRIS-HC pH 7.2, 2 mM EDTA, 10% sucrose.
Incubation for 60 min at 25° C. was performed in a total volume of 1 mL and contained, unless stated differently, 50 mM HEPES, pH 7.2, 5 mM MgCl2, 0.02 mg/mL 1.10-phenathroline (Sigma, P-9375), 0.25 mg/mL pefebloc SC (Boerhringer, 1429876), 30 μg/mL membrane protein and ˜0.25 nM [^3HNPC17731 (NEN, Boston). Samples were harvested on a Brandel Cell Harvester on to Wallac filtermat B sheets (96 sample format), and washed three times with 2 mL cold HEPES-buffer (10 mM, pH 7.5), and dried in a microwave oven. To each sample area 2×40 μL of Betaplate Scint scintillation fluid (LKB) was added and the radioactivity quantified on a LKB (Wallac) 1205 BetaPlate liquid scintillation counter.
The data were used to calculate either the % inhibition compared to control binding (when only a single concentration of test compound was evaluated) or a Ki value (when a range of concentrations were tested). Background was subtracted from mean cpm values and % inhibition was calculated as: [(total dpm-tpst compound dpm)/(total dpm-nonspecific dpm)]×100. Kd and Ki values were calculated using GraphPad PRISM data analysis program.

[2] = molecular target: T2, human B2 bradykinin receptors (CHO-hB2 cell membranes) (Homo sapiens, UniProt P30411); experiment: [35S]GTPγS Binding Assay in CHO-hB2 Cell Membranes; assay type: biochemical; details: bradykinin-stimulated [35S]GTPγS binding; for Functional Activity (% Basal): number in parentheses, concentration not given
T2 construct: purchased Receptor Biology, Inc. (Baltimore, Md.); host or cells: CHO-hB2 cells (membranes)
T2 sequence (P30411 1-391): T1 sequence (P30411 1-391)
Method: [^35S]GTPγS Binding Assay in CHO-hB2Cell Membranes
CHO-hB2 cell membranes were purchased from Receptor Biology, Inc. (Baltimore, Md.). 10 mg/mL of membrane protein was suspended in 10 mM TRIS-HC pH 7.2, 2 mM EDTA, 10% sucrose.
Membranes were added into 15 mL ice cold binding assay buffer. The assay buffer contained 50 mM HEPES, pH 7.6, 5 mM MgCl2, 100 mM NaCl, 1 mM DTT and 1 mM EDTA. The membrane suspension was homogenized twice with a Polytron and centrifuged at 3000 rpm for 10 min. The supernatant was then centrifuged at 18,000 rpm for 20 min. The pellet was saved in a tube and resuspended.
The pellet membranes (40 μg/mL) were preincubated with SPA (scintillation proximity assay) beads (20 mg/mL) at 25 C. ° for 45 min in the assay buffer. The SPA beads (5 mg/mL) coupled with membranes (10 μg/mL) were then incubated with 0.5 nM [^35S]GTPγS in the same HEPES buffer containing 50 μM GDP in total volume of 200 μL. Bradykinin was used to stimulate [^35S]GTPγS binding. Varying concentrations of drugs were incubated with bradykinin to inhibit bradykinin-stimulated [^35S]GTPγS binding. The basal binding was tested in the absence of bradykinin and no specific binding was tested in the present 10 μM unlabeled GTPγS. The radioactivity was quantified on a Packard Top Count, and calculated.
% of Basal=(stimulated binding−non specific binding)/(basal binding−non specific binding)×100.

[3] = system: kaolin-induced abdominal irritant response; experiment: Graded Abdominal Irritant Test (GrAIT); assay type: in vivo; details: po; for % Inhibition: 30 minutes before kaolin 100 mg/kg i.p., dose not given; for ED50: read-out: ED50 (μmol/Kg, p.o.)
Method: Graded Abdominal Irritant Test The […] Abdominal Irritant Test (GrAIT) is a modification of the methods described by Koster et al. (Koster R., Anderson M and DeBeer E. J. Fed. Proc. 1959, 18, 412). Prior to the test (30 minutes for oral or subcutaneous administration), each animal was administered a known analgesic, a test compound, or vehicle (0.05N HCl) by one of two routes (oral or subcutaneous). Kaolin (100 mg/kg) was injected intraperitoneally (using a standard 23G needle) at a volume of 10 mL/kg of body weight. Following the administration of the chemical agent, the animals were placed in glass bell jars (approximately 15 cm in diameter with wood chips on the bottom). […] A contraction of the abdominal musculature and an elongation of the body, which extends through to the hindlimbs, characterize this response. The responses were counted during the 15-minute period after the injection of the kaolin. A mechanical counter or a personal computer was used to collect the number of counts per animal, and animals were observed no more than 5 at a time. The mean number of counts (±SEM) for a group of animals receiving a known analgesic or test compound was compared to the mean for the group of animals which received only vehicle pretreatment (Control group). For each dose, % inhibition of the response was calculated. For each test compound, the ED50 value was calculated using a log dose regression analysis program (PharmTools software).

Row | Compound | Ki [1] [µM] | Functional Activity (word result) [2] | % Inhibition [3] [%] | ED50 [3] [µmol/kg] | Functional Activity (% Basal) [2] [% Basal]
1 | Cc1ccc2cccc(OCc3c(Cl)ccc(NC(=O)Cc4ccc(C(=O)c5ccc(C#N)nc5)n4C)c3Cl)c2n1 [Compound 14] | 6.76 | – | – | – | –
2 | Cc1ccc2cccc(OCc3c(Cl)ccc(NC(=O)Cc4ccc(C(=O)c5ccc(C#N)cc5)n4C)c3Cl)c2n1 [Compound 15] | 6.17 | Weak antagonist | – | – | –
3 | Cc1ccc2cccc(OCc3c(C)ccc(N(C)C(=O)Cc4ccc(C(=O)c5cnccc5Cl)n4C)c3C)c2n1 [Compound 77, 2-[5-(4-Chloro-pyridine-3-carbonyl)-1-methyl-1H-pyrrol-2-yl]-N-[2,4-dimethyl-3-(2-methyl-quinolin-8-yloxymethyl)-phenyl]-N-methyl-acetamide] | – | Antagonist | 70 | 80.9 | 62
4 | Cc1ccc2cccc(OCc3c(C)ccc(N(C)C(=O)Cc4ccc(C(=O)c5cnccc5C#N)n4C)c3C)c2n1 [Compound 78, 2-[5-(4-Cyano-pyridine-3-carbonyl)-1-methyl-1H-pyrrol-2-yl]-N-[2,4-dimethyl-3-(2-methyl-quinolin-8-yloxymethyl)-phenyl]-N-methyl-acetamide] | – | Antagonist | 82 | 114 | 83
5 | Cc1ccc2cccc(OCc3c(C)ccc(N(C)C(=O)CCc4ccc(C(=O)c5ccc(Cl)nc5)n4C)c3C)c2n1 [Compound 88] | – | Antagonist | – | – | –
6 | Cc1ccc2cccc(OCc3c(Cl)ccc(N(C)C(=O)CCc4ccc(C(=O)c5cnccc5Cl)n4C)c3Cl)c2n1 [Compound 89, 3-[5-(4-Chloro-pyridine-3-carbonyl)-1-methyl-1H-pyrrol-2-yl]-N-[2,4-dichloro-3-(2-methyl-quinolin-8-yloxymethyl)-phenyl]-N-methyl-propionamide] | – | Antagonist | 98 | 22.5 | 51
7 | Cc1ccc2cccc(OCc3c(C)ccc(N(C)C(=O)CCc4ccc(C(=O)c5ccc(C#N)cc5)n4C)c3C)c2n1 [Compound 90] | – | Antagonist | – | – | 50
8 | Cc1ccc2cccc(OCc3c(C)ccc(N(C)C(=O)Cc4ccc(C(=O)c5ccccc5)s4)c3C)c2n1 [Compound 108, 2-(5-Benzoyl-thiophen-2-yl)-N-[2,4-dimethyl-3-(2-methyl-quinolin-8-yloxymethyl)-phenyl]-N-methyl-acetamide] | 0.09 | – | – | – | –
9 | CC(=O)Nc1ccc(C=CC(=O)NC[C@H]2CCCN2c2ccc(C)c(COc3cccc4ccc(C)nc34)c2C)cn1 [Compound 112, 3-(6-Acetylamino-pyridin-3-yl)-N-{1-[2,4-dimethyl-3-(2-methyl-quinolin-8-yloxymethyl)-phenyl]-pyrrolidin-2-(R)-ylmethyl}-acrylamide.] | – | Antagonist | – | – | 59
10 | Cc1ccc2cccc(OCc3c(C)ccc(N4CCC[C@H]4CNC(=O)Cc4ccc(C(=O)c5ccc(C#N)cc5)n4C)c3C)c2n1 [Compound 113] | 7.9 | – | – | – | –
11 | Cc1ccc2cccc(OCc3c(C)ccc(N4CCC[C@H]4CNC(=O)CCc4ccc(C(=O)c5ccc(C#N)cc5)n4C)c3C)c2n1 [Compound 114] | 0.545 | – | – | – | –
12 | Cc1ccc2cccc(OCc3c(Cl)cc(Cl)c(N(C)C(=O)Cc4ccc(C(=O)c5ccc(Cl)nc5)n4C)c3Cl)c2n1 [Compound 117, 2-[5-(6-Chloro-pyridine-3-carbonyl)-1-methyl-1H-pyrrol-2-yl]-N-methyl-N-[2,4,6-trichloro-3-(2-methyl-quinolin-8-yloxymethyl)-phenyl]-acetamide] | – | Antagonist | – | – | –
13 | N-[2,4-Dimethyl-3-(2-methyl-quinolin-8-yloxymethyl)-phenyl]-3-[5-(4-methoxy-benzoyl)-1-methyl-1H-pyrrol-2-yl]-N-methyl-propionamide [Compound 106] | 0.375 | – | – | – | –
